# Data from patent US20250064781A1, “METHODS OF TREATING, AMELIORATING, AND/OR PREVENTING STRESS-RELATED DISORDER” (Yale University, priority 2021, published 2025).
# Entries after “also recorded” stand apart in the source; their conditions may differ. Where a name gives a salt, the structure may show the parent alone. Read-outs that look alike come from different tables or passages of the source.
# Experiments:
# [1] = biological target: T1, α1A-adrenergic receptor subtype (α1A-AR) (Homo sapiens, UniProt P35348); conditions: concluded from the Kenny et al. pKi values
# T1 sequence (P35348 1-466): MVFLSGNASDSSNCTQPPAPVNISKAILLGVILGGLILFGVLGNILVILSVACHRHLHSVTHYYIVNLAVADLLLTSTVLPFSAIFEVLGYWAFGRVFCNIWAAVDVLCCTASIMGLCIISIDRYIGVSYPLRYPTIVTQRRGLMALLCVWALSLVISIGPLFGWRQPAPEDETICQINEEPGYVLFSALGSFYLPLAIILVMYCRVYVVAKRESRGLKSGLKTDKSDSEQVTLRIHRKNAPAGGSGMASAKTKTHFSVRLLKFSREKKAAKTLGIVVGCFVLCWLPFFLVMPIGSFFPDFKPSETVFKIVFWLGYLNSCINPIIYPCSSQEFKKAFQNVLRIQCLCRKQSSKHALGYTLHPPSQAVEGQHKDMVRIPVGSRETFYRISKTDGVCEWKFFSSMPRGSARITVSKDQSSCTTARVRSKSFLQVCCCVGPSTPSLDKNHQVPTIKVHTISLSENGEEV
# [2] = test system: rhesus monkeys performing a spatial working memory task; assay: spatial working memory task (oculomotor delayed response, ODR) in monkeys exposed to stress; assay type: in vivo, Rhesus monkeys (Macaca mulatta); conditions: for performance in spatial working memory task under stress: FIGS. 3 and 4, 0.1 mg/kg pretreatment before the stressor; for performance in spatial working memory task under stress / performance (percent correct) in spatial working memory task under stress: versus VEH+STRESS; for effect on stress-induced prefrontal deficits: rhesus monkeys, dose not stated
# Experimental: Rhesus monkeys (Macaca mulatta) exposed to stress or vehicle and administered with RS17053 (“RS17”) or vehicle (“VEH”) (FIG. 1) or administered with silodosin (“SIL”) or vehicle (“VEH”) were subjected to the oculomotor delayed response (ODR) tasks similar to those as described previously (Datta et al., J Neurosci. 2019 Apr. 3;39(14):2722-2734, the entirety of the journal article is hereby incorporated herein by reference). Specifically, the experiments were performed as the follows:
# The monkeys were seated in primate chairs with their heads fixed and faced a 27-inch computer monitor 30 inches in front of them. The monkeys' eye positions were monitored with the ISCAN Eye Movement Monitoring System. The monkeys were pretrained on the visuospatial ODRtask, which required the subject to make a memory-guided saccade to a remembered visuospatial target. The ODR task was generated by the PICTO system (custom-designed, Windows-based data acquisition software). A central small white circle was illuminated on the computer monitor, which served as the fixation target. To initiate a trial, the animal fixated this central target and maintained fixation for 0.5 s (fixation period), whereupon a cue (the same sized white circle) was illuminated for a period of 0.5 s (cue period) at 1 of 8 peripheral targets located at an eccentricity of 13° with respect to the fixation spot. After the cue was extinguished, a 2.5 s delay period followed. The subject was required to maintain central fixation throughout both the cue presentation and the delay period. At the end of the delay, the fixation spot was extinguished, which instructed the monkey to make a memory-guided saccade to the location where the cue had been shown before the delay period. A trial was considered successful if the subject's response was completed within 0.5 s of the offset of the fixation spot and was within 2° around the correct cue location. The subject was rewarded with fruit juice immediately after every successful response. The position of the stimulus was randomized over trials such that it had to be remembered on a triα1-by-trial basis. The intertrial intervals (ITIs) were at least 3 s. The subject performed 1000-1500 trials per session.
# [3] = biological target: T2, α1B-adrenergic receptor subtype (α1B-AR) (Homo sapiens, UniProt P35368); conditions: cited from earlier work
# T2 sequence (P35368 1-520): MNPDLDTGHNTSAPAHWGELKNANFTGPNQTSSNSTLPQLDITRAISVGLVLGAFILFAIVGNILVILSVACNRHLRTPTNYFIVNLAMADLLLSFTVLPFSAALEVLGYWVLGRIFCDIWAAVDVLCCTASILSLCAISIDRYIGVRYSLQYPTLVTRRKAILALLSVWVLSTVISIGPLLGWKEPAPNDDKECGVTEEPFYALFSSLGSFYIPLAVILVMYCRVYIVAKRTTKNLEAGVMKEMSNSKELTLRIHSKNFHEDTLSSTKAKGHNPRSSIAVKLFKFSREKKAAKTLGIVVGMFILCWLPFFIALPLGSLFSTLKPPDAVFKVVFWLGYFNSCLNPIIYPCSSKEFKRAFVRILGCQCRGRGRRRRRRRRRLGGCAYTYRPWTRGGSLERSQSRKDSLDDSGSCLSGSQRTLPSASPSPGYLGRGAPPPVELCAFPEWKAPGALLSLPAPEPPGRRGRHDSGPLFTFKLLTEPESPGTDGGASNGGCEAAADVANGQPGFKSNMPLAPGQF
# [4] = biological target: T3, α1D-adrenergic receptor subtype (α1D-AR) (Homo sapiens, UniProt P25100); conditions: cited from earlier work
# T3 sequence (P25100 1-572): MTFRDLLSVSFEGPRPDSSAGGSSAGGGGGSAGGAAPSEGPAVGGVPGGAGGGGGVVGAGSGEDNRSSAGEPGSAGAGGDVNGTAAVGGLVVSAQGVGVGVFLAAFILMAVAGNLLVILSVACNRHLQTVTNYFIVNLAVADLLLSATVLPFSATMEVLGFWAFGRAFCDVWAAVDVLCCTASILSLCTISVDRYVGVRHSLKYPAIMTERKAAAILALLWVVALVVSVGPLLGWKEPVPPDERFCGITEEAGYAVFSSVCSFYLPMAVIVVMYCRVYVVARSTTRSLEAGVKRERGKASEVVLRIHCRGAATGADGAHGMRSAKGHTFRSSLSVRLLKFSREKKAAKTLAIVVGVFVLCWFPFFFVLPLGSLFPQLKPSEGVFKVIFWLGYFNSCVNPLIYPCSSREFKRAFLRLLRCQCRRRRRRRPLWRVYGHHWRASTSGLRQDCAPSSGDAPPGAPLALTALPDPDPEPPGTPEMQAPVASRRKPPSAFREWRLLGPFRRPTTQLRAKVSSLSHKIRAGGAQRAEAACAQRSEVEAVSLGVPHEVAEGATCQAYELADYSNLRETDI
# [5] = biological target: T1, α1A-adrenergic receptor subtype (α1A-AR); conditions: Kenny et al., cited from earlier work; for α1-adrenoceptor subtype preference (in words): as previously reported; for pKi for α1A-AR: cloned human receptor, Br J Pharmacol. 1996
# [6] = CHMP assessment report for Silodyx
# [7] = cloned human receptor, Kenny et al., Br J Pharmacol. 1996
# [8] = Williams et al. Br J Pharmacol. 1999
Molecule,performance in spatial working memory task under stress [2],effect on stress-induced prefrontal deficits [2],α1-adrenoceptor subtype preference (in words) [5],pKi for α1A-AR [5],"pKi for α1B-AR [3, 7]","pKi for α1D-AR [4, 7]",other results
COc1cc2nc(N3CCN(C(=O)C4COc5ccccc5O4)CC3)nc(N)c2cc1OC (centres unmarked) [doxazosin],,,,,,,"α1-adrenoceptor subtype preference (in words) [1]: has a preference for the α1B subtype, rather than the α1A subtype"
C[C@H](Cc1cc2c(c(C(N)=O)c1)N(CCCO)CC2)NCCOc1ccccc1OCC(F)(F)F [silodosin],protected from stress exposure,completely blocked the stress-induced prefrontal deficits,,,,,"pKi for α1B-AR [3, 6]: 8.19; pKi for α1D-AR [4, 6]: 8.66"
"CC(C)(Cc1c[nH]c2ccc(Cl)cc12)NCCOc1ccccc1OCC1CC1 [RS17053, N-[2-(2-cyclopropylmethoxyphenoxy)ethyl]-5-chloro-α,α-dimethyl-1H-indole-3-ethanamine]",,completely blocked the stress-induced prefrontal deficits,strong preference for α1A-AR,8.6±0.09,7.3±0.09,7.1±0.09,"performance (percent correct) in spatial working memory task under stress ([2]; FIG. 1, pretreatment 0.1 mg/kg-1 mg/kg before the stressor): protected from stress exposure; performance (percent correct) in spatial working memory task under stress ([2]; FIG. 2, low dose 0.01 mg/kg pretreatment before the stressor): blocked the stress-induced prefrontal deficits; also recorded: protected from stress exposure; effect on spatial working memory performance without stress ([2]; monkeys not subjected to stress, VEH+VEH vs. RS17+VEH): no significant effect"
"Cc1c[nH]c(=O)n(CCCN2CCN(c3ccccc3OCC(F)(F)F)CC2)c1=O [RS 100329 hydrochloride, 5-Methyl-3-[3-[3-[4-[2-(2,2,2,-trifluroethoxy)phenyl]-1-piperazinyl]propyl]-2,4-(1H,3H)-pyrimidinedione hydrochloride]",,,,,,,"selectivity for α1A-AR over α1B-AR [3, 8]: 126 fold; selectivity for α1A-AR over α1D-AR [4, 8]: 50 fold"
"1-(4-amino-6,7-dimethoxy-2-quinazolinyl)-4-[[2-methoxy-6-(1-methylethyl)phenoxy]acetyl]piperazine [Rec 15/2739]",,,,9.0±0.07,,8.6±0.07,
"CCOc1ccccc1OCCNC(C)Cc1ccc(OC)c(S(N)(=O)=O)c1 (centres unmarked) [tamsulosin, 5-(2-{[2-(2-Ethoxyphenoxy)ethyl]amino}propyl)-2-methoxybenzene-1-sulfonamide]",protected from stress exposure,effective for treating disorders consequent of stress,preference for α1A-AR and α1D-AR over α1B-AR,,7.0±0.08,8.1±0.04,effect on stress-induced prefrontal deficits ([2]; listed as tamulosin): completely blocked the stress-induced prefrontal deficits
